Laboratory results taken from PMC12150326 (The Journal of Organic Chemistry, 2025).
Where two headings read alike, the source gives them in different places.

Experiments:
[1] = Experimental rotational energy barrier (thermal racemization, chiral HPLC); assay type: physicochemical
Protocol: (aR)-6 and (aS)-6 were readily separable from one another and racemic iso -6 through the use of a polysaccharide-based chiral column (Diacel IA column) fitted to an automated medium-pressure liquid chromatography unit (Biotage Isolera Prime). Racemization was observable after heating a solution of either enantiopure (aR)- or (aS)-6 at 135 °C in xylenes over a few hours, and the rate of enantiomerization was extrapolated using the Eyring equation (ΔG ^‡ = 31.2 ± 0.3 kcal/mol). (aR)- and (aS )-iso-6 were separable in an analogous fashion using a chiral IC polysaccharide column. […] Thus, we can project that the rotational energy barrier is […] 37 kcal/mol. However, a computationally determined rotational barrier for iso -6 was 33.5 kcal/mol, which is roughly 3 kcal/mol more than that calculated for 6. One potential explanation for this notable difference in configurational stability is the greater double bond character of the methyl-bearing C^4–C^5 carbon of iso -6 in comparison to the C^5–C^6 in 6, as this would both shorten and rigidify this steric-bearing bond (see Scheme A/B for details). […] Studies have previously described differences in rotational barriers of DAAC (2) and its analogous isomer that, while less dramatic, are consistent with this trend (ΔG ^‡ = 22.1 vs 23.4 kcal/mol). […]
IV. Experimental Profiling of Dihedral Angles
Rotational Energy Barrier Determination. A small spatula tip (~0.2 mg) of either (aR)-6 (aka, (aR)-MT-MTC) or (aS)-6 (aka, (aS)-MT-MTC) was diluted in 2 mL o-xylenes in a large vial containing a stir bar. The solution was heated to 135 °C open to air (temperature set to 135 °C, but fluxuated between 134 and 138 °C).
~100 µL aliquots were extracted from solution using a syringe fitted with a long disposable needle at various time intervals and diluted into automated sample vials containing 500 µL CH2Cl2 to rapidly cool. These samples were monitored on Agilent with an analytical HPLC IA column, using 0 – 40% iPrOH in Hexanes gradient over 30 minutes at a flow rate of 0.5 mL/min, and a pressure of roughly 5 bar). Samples eluted approximately 20 minutes into run, with (aR)-6 eluting first, followed by (aS)-6. Three separate runs were carried out, two of which monitored racemization of (aS)-6, and one of which monitored racemization of (aR)- […]
Integration of the HPLC traces were used to determine enantiomeric excess by calculating the difference between the two enantiomers and dividing that by the sum of the two enantiomers, and then multiplying that […]
provided a slope (corresponding to kracemization), and dividing this number […] providing kenantiomerization (or kent in equation below), with units inverse seconds. A summary of data follows (Table S5), and representative chromatograms illustrated in section VI.

[2] = cited from earlier work
bovine brain tubulin = assay: Tubulin polymerization inhibition; assay type: biochemical; conditions: 10 μM tubulin; for Polymerization Inhibition (%) 3.3 μM: 3.3 μM compound; for Polymerization Inhibition (%) 33 μM: 33 μM compound
Protocol: Inhibition of tubulin polymerization was determined as described previously. In brief, 10 μM bovine brain tubulin (PurSolutions, LLC (puresoluble.com)) was incubated under conditions strongly promoting polymerization of tubulin (1 M NaGlutamate, 0.1 M Mes (Morpholinoethanesulfonic acid), 1 mM MgCl2, 0.5 mM GTP, pH 6.9), in the absence or presence of 3.3 or 33 μM test compound, incubated for 30 min at 37 °C, then centrifuged at 100,000g for 8 min, and the top 3/4 of the supernatant removed. Protein concentration was measured, and polymerization was determined as pelletable protein lost from the supernatant.

[3] = target: colchicine site of bovine brain tubulin; assay type: binding; conditions: for Kd: tubulin binding constant, 25 °C, read-out: Kd
Protocol: Inhibition of this fluorescence increase was measured and converted to K d for the test compound as described.

A549 = assay: Cell-growth inhibition (CellTiter); assay type: cell-based, human; conditions: Homo sapiens, A549, 72 h, read-out: Cell Growth Inhibition GI50 ± SE
Protocol: (§1) Inhibition of cell growth was determined by using standard procedures. Cell lines were obtained from the NCI anticancer drug screen and maintained in DMEM medium supplemented with 10% fetal bovine serum. Growing cells were exposed to serial dilutions of each compound for 3 days. Cell growth was determined with CellTiter Assay Reagent (Promega), and growth parameters, including inhibition of growth, were measured by using the methods specified by the manufacturer.

M14 = assay: Cell-growth inhibition (CellTiter); assay type: cell-based, human; conditions: Homo sapiens, M14, 72 h, read-out: Cell Growth Inhibition GI50 ± SE
Protocol: as §1

PC3 = assay: Cell-growth inhibition (CellTiter); assay type: cell-based, human; conditions: Homo sapiens, PC-3, 72 h, read-out: Cell Growth Inhibition GI50 ± SE
Protocol: as §1

Row | Structure (SMILES) | Polymerization Inhibition (%) 3.3 μM (bovine brain tubulin) | Polymerization Inhibition (%) 33 μM (bovine brain tubulin) | Kd [3] | GI50 (A549; A549, 3 days) | GI50 (M14; M14, 3 days) | GI50 (PC3; PC3, 3 days) | also measured
1 | COc1cc(C)c(-c2ccc(=O)c(OC)cc2C)c(OC)c1OC [iso-6, 2-Methoxy-4-methyl-5-(2,3,4-trimethoxy-6-methylphenyl)cyclohepta-2,4,6-trien-1-one] |  |  |  |  |  |  | racemization on heating ([1]; 145 °C for 10 h): no racemization was observed; projected rotational energy barrier ([1]; from absence of racemization at 145 °C, 10 h): 37 kcal/mol
2 | COc1cc2c(c(OC)c1OC)-c1ccc(OC)c(=O)cc1CCC2 [compound 2, desacetamidocolchicine] |  |  |  |  |  |  | ΔG‡ exp, rotational barrier [2]: 22.1 kcal/mol; t1/2 rt of racemization ([2]; room temperature ref 19): ~ 0.5 h
3 | COc1ccc(-c2ccc(OC)c(=O)cc2)c(OC)c1OC [compound 3, 2-methoxy-5-(2,3,4-trimethoxyphenyl)-2,4,6-cycloheptatrien-1-one, reference compound] | 100% | 100% | 3200 nM |  |  |  | GI50 (A549): 30 ± 1 nM; GI50 (M14): 30 ± 7 nM; GI50 (PC3): 30 ± 5 nM
4 | COc1cc(C)c(-c2ccc(OC)c(=O)cc2)c(OC)c1OC [compound 5, 2-Methoxy-5-(2,3,4-trimethoxy-6-methylphenyl)cyclohepta-2,4,6-trien-1-one] | 0% | 100% | 14000 nM | 300 ± 10 nM | 300 ± 10 nM | 220 ± 40 nM | binding constant fold less potent than 3 [3]: 5–30 fold
5 | COc1ccc(-c2ccc(OC)c(=O)cc2C)c(OC)c1OC [compound 4, 2-Methoxy-6-methyl-5-(2,3,4-trimethoxyphenyl)cyclohepta-2,4,6-trien-1-one] | 0% | 100% | 20000 nM | 300 ± 10 nM | 250 ± 25 nM | 190 ± 60 nM | binding constant fold less potent than 3 [3]: 5–30 fold
6 | COc1ccc(-c2ccc(=O)c(OC)cc2C)c(OC)c1OC [iso-4] | 0% | 0% | 230000 nM | > 3000 nM | > 3000 nM | > 3000 nM | 
7 | COc1cc(C)c(-c2ccc(OC)c(=O)cc2C)c(OC)c1OC [compound 6, 2-Methoxy-6-methyl-5-(2,3,4-trimethoxy-6-methylphenyl)cyclohepta-2,4,6-trien-1-one] |  |  |  |  |  |  | ΔG‡ of enantiomerization, experimental ([1]; 135 °C in xylenes, Eyring equation): 31.2 ± 0.3 kcal/mol
